Molecules are shown by their SMILES. Active and inactive are the calls of the source. No cut-off for these calls is given here.

The target of series [1] is C-C chemokine receptor type 2 (Homo sapiens) (UniProt P41597). Description: Inhibition of CCR2B by Ca(2+) flux assay.
Series [2] deals with T1, C-X-C chemokine receptor type 1 (Homo sapiens) (UniProt P25024).
T1 sequence (whole entry): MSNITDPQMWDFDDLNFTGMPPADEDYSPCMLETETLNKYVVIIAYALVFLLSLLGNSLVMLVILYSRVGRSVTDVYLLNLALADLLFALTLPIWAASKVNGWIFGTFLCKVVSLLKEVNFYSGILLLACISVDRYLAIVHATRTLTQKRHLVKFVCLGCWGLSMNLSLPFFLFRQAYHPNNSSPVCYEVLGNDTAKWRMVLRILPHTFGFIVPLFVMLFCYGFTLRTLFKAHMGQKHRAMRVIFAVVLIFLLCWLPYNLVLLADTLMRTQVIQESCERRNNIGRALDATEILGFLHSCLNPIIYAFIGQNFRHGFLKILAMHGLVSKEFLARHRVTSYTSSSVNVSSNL
Description: Inhibition of CXCR1 by Ca(2+) flux assay.

The target in series [3] is T2, C-C chemokine receptor type 1 (Homo sapiens) (UniProt P32246).
T2 sequence (whole entry): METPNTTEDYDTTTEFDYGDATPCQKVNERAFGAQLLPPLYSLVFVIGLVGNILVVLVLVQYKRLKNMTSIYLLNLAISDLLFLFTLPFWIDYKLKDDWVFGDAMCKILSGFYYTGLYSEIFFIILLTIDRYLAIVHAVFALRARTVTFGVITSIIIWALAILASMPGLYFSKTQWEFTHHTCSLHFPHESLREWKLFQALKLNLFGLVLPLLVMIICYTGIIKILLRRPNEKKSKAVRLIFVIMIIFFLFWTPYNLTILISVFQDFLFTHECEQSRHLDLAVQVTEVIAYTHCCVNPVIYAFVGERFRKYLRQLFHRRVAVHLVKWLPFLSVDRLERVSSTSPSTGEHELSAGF
Description: Inhibition of CCR1 by Ca(2+) flux assay.

For series [4], the target named is T3, Muscarinic acetylcholine receptor M2 (Homo sapiens) (UniProt P08172).
T3 sequence (whole entry): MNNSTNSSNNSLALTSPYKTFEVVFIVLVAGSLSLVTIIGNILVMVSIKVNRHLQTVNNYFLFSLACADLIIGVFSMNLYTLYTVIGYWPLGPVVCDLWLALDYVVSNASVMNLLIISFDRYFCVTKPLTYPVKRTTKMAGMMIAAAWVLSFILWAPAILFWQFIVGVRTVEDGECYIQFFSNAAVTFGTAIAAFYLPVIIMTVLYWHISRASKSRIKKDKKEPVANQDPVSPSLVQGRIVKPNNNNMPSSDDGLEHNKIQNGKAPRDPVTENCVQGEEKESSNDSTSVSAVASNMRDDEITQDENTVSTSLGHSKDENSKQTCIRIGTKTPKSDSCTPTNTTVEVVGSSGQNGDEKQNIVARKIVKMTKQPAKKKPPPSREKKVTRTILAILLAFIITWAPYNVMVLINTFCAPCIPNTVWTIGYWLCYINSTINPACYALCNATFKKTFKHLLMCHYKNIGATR
Description: Inhibition of muscarinic M2 receptor.

In series [5] the target is T4, C-X-C chemokine receptor type 2 (Homo sapiens) (UniProt P25025).
T4 sequence (whole entry): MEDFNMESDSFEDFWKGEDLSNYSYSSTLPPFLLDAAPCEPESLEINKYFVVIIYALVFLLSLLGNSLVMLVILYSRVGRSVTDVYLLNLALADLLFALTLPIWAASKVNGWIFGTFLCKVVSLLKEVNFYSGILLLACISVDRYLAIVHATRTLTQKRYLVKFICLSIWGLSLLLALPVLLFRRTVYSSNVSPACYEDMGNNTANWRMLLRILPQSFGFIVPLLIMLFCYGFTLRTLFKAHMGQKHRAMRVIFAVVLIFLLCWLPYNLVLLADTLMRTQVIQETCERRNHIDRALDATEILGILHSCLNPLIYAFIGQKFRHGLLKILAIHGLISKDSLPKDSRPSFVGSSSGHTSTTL
Description: Inhibition of CXCR2 by Ca(2+) flux assay.

Series [6] can be described thus: Volume of distribution at steady state in dog at 5 umol/kg, iv. The note with it: in vivo, read-out: Vdss. The series is classed as ADME, organism-based, Canis lupus familiaris.
The target in series [7] is T5, C-C chemokine receptor type 4 (Homo sapiens) (UniProt P51679).
T5 sequence (whole entry): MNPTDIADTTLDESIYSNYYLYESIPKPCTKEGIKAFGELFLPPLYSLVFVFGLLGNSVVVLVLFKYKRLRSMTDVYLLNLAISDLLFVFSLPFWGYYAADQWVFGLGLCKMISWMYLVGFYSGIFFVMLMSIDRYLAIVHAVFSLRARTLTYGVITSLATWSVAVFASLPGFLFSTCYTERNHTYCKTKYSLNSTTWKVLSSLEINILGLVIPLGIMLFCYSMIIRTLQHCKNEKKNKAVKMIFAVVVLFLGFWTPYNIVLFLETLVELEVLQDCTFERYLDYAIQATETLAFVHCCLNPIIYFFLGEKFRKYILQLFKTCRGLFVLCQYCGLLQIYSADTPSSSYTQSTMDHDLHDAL
Description: Inhibition of CCR4 by Ca(2+) flux assay.

Series [8] in a line: Cmax in dog. The following applies: in vivo. The format is ADME, organism-based, Canis lupus familiaris.
Series [9] in a line: (§1) Half life in rat at 10 umol/kg, iv. The format is ADME, organism-based. The note with it: in vivo, 10 umol/kg.
The target in series [10] is C-X-C chemokine receptor type 4 (Homo sapiens) (UniProt P61073). Description: Inhibition of CXCR4 by Ca(2+) flux assay.
Sequence of C-X-C chemokine receptor type 4 (Homo sapiens) (P61073 whole entry): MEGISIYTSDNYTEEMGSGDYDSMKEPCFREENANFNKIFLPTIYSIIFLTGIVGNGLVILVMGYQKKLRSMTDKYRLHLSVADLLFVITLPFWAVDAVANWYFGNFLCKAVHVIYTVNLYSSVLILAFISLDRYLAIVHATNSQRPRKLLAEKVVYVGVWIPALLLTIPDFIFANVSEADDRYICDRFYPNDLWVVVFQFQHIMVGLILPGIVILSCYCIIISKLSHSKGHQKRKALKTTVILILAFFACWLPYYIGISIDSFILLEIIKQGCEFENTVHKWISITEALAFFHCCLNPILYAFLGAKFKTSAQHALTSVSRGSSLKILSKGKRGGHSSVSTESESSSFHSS
Series [11] concerns the target Voltage-gated inwardly rectifying potassium channel KCNH2 (Homo sapiens, UniProt Q12809). Description: Inhibition of human ERG.
Series [12] is described as follows: Clearance in rat at 10 umol/kg, iv. The series is classed as ADME, organism-based. The following applies: in vivo.
The nature of series [13]: Oral bioavailability in dog. The format is ADME, organism-based, Canis lupus familiaris. The following applies: in vivo.
A further series has as its target Cytochrome P450 3A4 (Homo sapiens, UniProt P08684). Description: Inhibition of CYP3A4. The format is ADME.
Series [14] in a line: AUC (0 to infinity) in rat. The format is ADME, organism-based. Details: time infinity; concentration or dose not given beside the values. The note with it: plasma.
A short description of series [15]: (§2) Plasma protein binding in human plasma at 1 uM after 5 hrs by LC-MS/MS analysis. The format is ADME, cell-free. The note with it: read-out: PPB (converted).
The next series addresses Cytochrome P450 2D6 (Homo sapiens, UniProt P10635). Description: Inhibition of CYP2D6. The format is ADME.
Series [16] in a line: Cmax in rat. The series is classed as ADME, organism-based. The following applies: in vivo.
Series [17] concerns Human immunodeficiency virus 1. Description: Antiviral activity against R5 tropic Human immunodeficiency virus 1 BAL infected in human PBMC cells assessed as reduction in viral replication by p24 detection based ELISA. The series is classed as functional, organism-based.
Series [18] in a line: Oral bioavailability in rat. The note with it: in vivo. The series is classed as ADME, organism-based.
Another series concerns the target Cytochrome P450 2C9 (Homo sapiens, UniProt P11712). Description: Inhibition of CYP2C9. The series is classed as ADME.
The nature of series [19]: Clearance in dog at 5 umol/kg, iv. The series is classed as ADME, organism-based, Canis lupus familiaris. The note with it: in vivo.
The next series has as its target Cytochrome P450 2C19 (Homo sapiens, UniProt P33261). Description: Inhibition of CYP2C19. The series is classed as ADME.
Series [20] is described as follows: AUC (0 to infinity) in dog. The note with it: plasma. Details: time infinity; concentration or dose not given beside the values. The series is classed as ADME, organism-based, Canis lupus familiaris.
Series [21] in a line: Half life in dog at 5 umol/kg, iv. The series is classed as ADME, organism-based, Canis lupus familiaris. The following applies: in vivo.
Series [22] in a line: (§3) Volume of distribution at steady state in rat at 10 umol/kg, iv. The series is classed as ADME, organism-based. The note with it: in vivo, 10 umol/kg, read-out: Vdss.
Another series addresses T6, Cytochrome P450 1A2 (Homo sapiens, UniProt P05177).
T6 sequence (P05177 whole entry): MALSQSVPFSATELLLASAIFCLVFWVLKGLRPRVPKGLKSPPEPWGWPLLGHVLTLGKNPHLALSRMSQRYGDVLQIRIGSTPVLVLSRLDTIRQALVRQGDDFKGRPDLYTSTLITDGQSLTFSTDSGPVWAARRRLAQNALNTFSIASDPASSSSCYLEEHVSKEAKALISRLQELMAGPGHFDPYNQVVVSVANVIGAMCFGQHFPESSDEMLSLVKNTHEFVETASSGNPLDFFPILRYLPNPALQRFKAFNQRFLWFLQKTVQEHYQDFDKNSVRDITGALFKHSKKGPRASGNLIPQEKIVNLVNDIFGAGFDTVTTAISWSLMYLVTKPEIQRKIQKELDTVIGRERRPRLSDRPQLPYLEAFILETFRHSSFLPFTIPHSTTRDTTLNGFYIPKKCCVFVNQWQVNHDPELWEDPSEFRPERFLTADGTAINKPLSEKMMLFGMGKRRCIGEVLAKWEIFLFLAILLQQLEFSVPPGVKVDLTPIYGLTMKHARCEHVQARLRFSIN
Description: Inhibition of CYP1A2. The series is classed as ADME.

Series [23] can be described thus: Cytotoxic activity against human PBMC assessed as reduction in cell viability. The series is classed as cell-based.
The subject of the next series is Plasma. The series is described as §2. The series is classed as ADME, cell-free. The note with it: 5 h, 1 µM.
The test system of series [24] is Rattus norvegicus. The description is as §1. The series is classed as ADME, organism-based. The following applies: in vivo.
Series [25] has as its system Rattus norvegicus. The description is as §3. The series is classed as ADME, organism-based. The following applies: in vivo.

Sequence of C-C chemokine receptor type 2 (Homo sapiens) (P41597 whole entry, looked up): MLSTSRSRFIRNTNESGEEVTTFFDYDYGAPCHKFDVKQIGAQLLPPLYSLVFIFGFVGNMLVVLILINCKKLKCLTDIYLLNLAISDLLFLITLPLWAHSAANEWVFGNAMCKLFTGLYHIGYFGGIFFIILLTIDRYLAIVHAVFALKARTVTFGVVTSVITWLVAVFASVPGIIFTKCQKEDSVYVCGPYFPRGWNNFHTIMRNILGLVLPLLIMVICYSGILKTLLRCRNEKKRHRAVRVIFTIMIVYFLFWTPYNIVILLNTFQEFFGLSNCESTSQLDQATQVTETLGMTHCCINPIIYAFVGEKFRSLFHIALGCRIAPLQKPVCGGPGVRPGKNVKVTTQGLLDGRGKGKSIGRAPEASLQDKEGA
Sequence of Cytochrome P450 3A4 (P08684 whole entry): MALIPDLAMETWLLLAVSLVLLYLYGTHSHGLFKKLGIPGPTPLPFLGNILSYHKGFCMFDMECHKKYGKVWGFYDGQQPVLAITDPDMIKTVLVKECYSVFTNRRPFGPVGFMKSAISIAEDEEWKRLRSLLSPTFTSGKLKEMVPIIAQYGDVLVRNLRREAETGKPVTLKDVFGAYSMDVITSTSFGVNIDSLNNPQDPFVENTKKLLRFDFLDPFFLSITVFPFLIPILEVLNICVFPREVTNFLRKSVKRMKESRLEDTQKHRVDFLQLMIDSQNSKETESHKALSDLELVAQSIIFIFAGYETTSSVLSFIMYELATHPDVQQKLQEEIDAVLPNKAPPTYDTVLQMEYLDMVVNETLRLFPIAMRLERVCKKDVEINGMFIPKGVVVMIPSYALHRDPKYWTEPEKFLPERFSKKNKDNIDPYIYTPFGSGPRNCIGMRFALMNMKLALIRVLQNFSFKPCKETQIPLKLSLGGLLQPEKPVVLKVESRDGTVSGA
Sequence of Voltage-gated inwardly rectifying potassium channel KCNH2 (Q12809 whole entry): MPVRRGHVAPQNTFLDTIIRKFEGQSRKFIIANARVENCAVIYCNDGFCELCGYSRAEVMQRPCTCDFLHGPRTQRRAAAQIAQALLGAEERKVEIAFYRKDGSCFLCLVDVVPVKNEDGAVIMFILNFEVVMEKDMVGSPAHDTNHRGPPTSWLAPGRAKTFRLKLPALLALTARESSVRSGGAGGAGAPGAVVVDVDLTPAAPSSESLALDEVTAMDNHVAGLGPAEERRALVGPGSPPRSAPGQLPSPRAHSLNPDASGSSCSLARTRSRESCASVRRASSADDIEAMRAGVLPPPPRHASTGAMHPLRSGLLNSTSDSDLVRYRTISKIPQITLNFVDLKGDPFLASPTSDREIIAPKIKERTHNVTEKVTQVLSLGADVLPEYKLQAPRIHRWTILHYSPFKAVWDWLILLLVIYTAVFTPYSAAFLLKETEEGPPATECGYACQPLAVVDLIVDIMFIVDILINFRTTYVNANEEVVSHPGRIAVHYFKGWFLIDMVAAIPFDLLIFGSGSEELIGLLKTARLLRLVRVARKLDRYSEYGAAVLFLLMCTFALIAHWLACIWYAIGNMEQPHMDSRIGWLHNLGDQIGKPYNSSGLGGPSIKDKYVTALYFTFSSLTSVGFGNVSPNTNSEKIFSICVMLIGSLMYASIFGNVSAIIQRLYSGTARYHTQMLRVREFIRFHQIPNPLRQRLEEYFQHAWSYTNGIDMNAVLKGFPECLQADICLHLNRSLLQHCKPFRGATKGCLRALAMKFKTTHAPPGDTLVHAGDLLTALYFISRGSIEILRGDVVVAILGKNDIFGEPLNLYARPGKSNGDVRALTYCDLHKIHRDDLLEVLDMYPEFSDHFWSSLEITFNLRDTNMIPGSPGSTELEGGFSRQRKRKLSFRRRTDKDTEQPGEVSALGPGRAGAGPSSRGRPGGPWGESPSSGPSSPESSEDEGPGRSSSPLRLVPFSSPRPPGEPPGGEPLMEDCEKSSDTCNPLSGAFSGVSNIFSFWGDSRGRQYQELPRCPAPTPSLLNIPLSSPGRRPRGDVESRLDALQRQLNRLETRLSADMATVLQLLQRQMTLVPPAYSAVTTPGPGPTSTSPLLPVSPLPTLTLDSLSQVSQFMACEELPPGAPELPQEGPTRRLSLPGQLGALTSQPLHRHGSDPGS
Sequence of Cytochrome P450 2D6 (P10635 whole entry): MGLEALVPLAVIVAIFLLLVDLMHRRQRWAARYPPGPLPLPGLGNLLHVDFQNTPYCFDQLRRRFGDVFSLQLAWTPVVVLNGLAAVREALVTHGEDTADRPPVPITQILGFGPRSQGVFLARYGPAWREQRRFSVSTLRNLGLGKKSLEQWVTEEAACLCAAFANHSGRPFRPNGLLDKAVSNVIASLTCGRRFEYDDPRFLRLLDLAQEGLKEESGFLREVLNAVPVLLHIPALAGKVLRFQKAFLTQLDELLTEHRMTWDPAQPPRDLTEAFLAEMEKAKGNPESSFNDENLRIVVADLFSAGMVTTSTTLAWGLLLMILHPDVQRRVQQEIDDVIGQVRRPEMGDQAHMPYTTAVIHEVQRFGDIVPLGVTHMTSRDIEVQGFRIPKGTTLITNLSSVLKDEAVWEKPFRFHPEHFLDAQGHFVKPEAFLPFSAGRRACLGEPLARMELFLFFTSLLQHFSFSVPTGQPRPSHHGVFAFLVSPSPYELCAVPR
Sequence of Cytochrome P450 2C9 (P11712 whole entry): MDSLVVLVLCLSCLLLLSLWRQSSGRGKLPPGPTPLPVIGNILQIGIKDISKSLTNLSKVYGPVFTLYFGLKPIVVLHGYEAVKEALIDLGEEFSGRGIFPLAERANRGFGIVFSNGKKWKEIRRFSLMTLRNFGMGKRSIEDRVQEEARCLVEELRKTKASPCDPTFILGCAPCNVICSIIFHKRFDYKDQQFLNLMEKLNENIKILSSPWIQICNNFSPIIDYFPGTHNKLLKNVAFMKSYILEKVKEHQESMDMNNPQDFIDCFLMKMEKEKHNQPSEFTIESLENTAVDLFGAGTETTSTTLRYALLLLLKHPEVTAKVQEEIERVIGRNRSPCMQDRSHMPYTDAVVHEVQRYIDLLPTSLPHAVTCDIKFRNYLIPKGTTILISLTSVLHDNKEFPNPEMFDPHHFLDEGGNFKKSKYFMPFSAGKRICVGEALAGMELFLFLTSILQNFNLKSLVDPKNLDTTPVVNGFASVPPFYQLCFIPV
Sequence of Cytochrome P450 2C19 (P33261 whole entry): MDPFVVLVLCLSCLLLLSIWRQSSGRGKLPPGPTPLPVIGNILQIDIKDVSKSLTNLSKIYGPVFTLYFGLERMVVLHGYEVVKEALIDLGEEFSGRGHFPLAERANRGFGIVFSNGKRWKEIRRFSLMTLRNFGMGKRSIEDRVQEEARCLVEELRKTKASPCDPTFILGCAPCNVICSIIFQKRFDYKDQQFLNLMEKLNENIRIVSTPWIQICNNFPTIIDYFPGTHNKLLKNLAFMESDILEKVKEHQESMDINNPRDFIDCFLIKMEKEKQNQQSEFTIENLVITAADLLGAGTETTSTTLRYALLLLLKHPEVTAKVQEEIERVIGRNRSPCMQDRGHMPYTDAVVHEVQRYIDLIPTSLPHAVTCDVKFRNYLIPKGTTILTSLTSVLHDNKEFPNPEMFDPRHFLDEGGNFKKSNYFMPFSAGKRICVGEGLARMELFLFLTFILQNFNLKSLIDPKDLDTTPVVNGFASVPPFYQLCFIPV

On to `COc1ccc(N(Cc2cnccc2C)C2CCN([C@H](C)CCNC(=O)c3c(C)cc(Cl)nc3C)CC2)cc1`, for which the inhibition result in [1], in series [2], in series [3], in series [4], in series [5] and in series [7] was “inactive” each time. For the same compound, the inhibition entry in series [10] was “inactive”. Moreover, the Vd came out at 34.7 L/kg in series [6] and 40.5 L/kg in series [22]. Moreover, the results for the maximum concentration (Cmax) in series [8] and in series [16] were 580 nM and 3800 nM, respectively. The half-life – broadly, how long it takes for the measured level to halve – in series [9] was 600 min; in [21], 810 min. Besides, the half-maximal inhibitory concentration (IC50) (usually the point on the concentration scale where inhibition reaches its midpoint) in series [11] came to 250 nM; in series [17] it was 2.2 nM. Also, the values for the clearance in [12] and in series [19] were 46.7 mL/min/kg and 30 mL/min/kg, respectively. In addition, the bioavailability (in general, the share of a dose that reaches the circulation, judged against a reference dose that is usually intravenous) in series [13] came out at 21%; in series [18], 67%. Further, the INH on Cytochrome P450 3A4, on Cytochrome P450 2D6, at Cytochrome P450 2C9, on Cytochrome P450 2C19 and at Cytochrome P450 1A2 was > 10 µM throughout. Also, the total exposure AUC(0-inf) (usually the area under the concentration-time curve extrapolated to infinity) in series [14] came to 22.7 µM·h; in series [20] it was 1.33 µM·h. Also, in series [15], the fraction unbound at 5 h, 1 µM was 0.08. Also, the 50% cytotoxic concentration (CC50) (as a rule, the concentration at which the toxic effect on the cells reaches its halfway point) in [23] is > 36.4 µM.

In the case of `COc1ccc(N(Cc2cnccc2C)C2CCN([C@H](C)CCNC(=O)c3c(C)ncnc3C)CC2)cc1`, the PPB in the series on Plasma came out at 75%. Moreover, the IC50 in series [17] turned out to be 1830 nM. Further, the cytotoxic concentration (CC50) in series [23] was > 38.3 µM.

As to `COc1ccc(N(Cc2cccnc2)C2CCN([C@H](C)CCNC(=O)c3c(C)cc(Cl)nc3C)CC2)cc1`, the Vd in series [6] amounted to 26.7 L/kg. The peak concentration (Cmax) (commonly the highest concentration seen after dosing) in series [8] turned out to be 1570 nM; in series [16], 1330 nM. This compound also came in with a t1/2 in the series with Rattus norvegicus [24] of 8.6 h. Further, the bioavailability in series [13] turned out to be 37%; in series [18], 23%. Besides, the AUC(0-inf) was determined as 4.83 µM·h in [14] and 2.73 µM·h in series [20]. Moreover, the fraction unbound at 5 h, 1 µM in [15] was 0.07. For the same compound, the IC50 in series [17] was found to be 18.9 nM. Further, the clearance – broadly, the rate of elimination divided by the concentration – in [19] worked out at 23.3 mL/min/kg. Moreover, the half-life in series [21] is 792 min. In addition, the Vdss (usually the apparent volume that relates the amount in the body to the concentration in plasma or blood) in the series with Rattus norvegicus [25] was found to be 50.5 L/kg. Besides, the CC50 in [23] was > 37.3 µM.
